Entries after “also recorded” stand apart in the source; their conditions may differ. Like-named read-outs stand apart in the source and are kept apart here.
Key:
[1] = tested on: experimental periodontitis induced by silk thread ligation of P3 and P4; experiment: Canine periodontitis model study, topical alveolar mucosa injection (Example 1): alveolar bone loss and clinical scores; type: in vivo, beagle dogs
Text: The standardized X-ray photographing method (J. Periodontol., 33, 164-171 (1962)) was employed, in which irradiation direction of X-ray to a subject and position of the film are always kept constant so that X-ray photographs of the same region of the same individual can be obtained repeatedly always under the same conditions. This time, in order to evaluate alveolar bone loss around P3 and P4 of right and left mandibles, a cap was formed between incisor tooth and M1 of both mandibles using an acrylic resin, and a fixing device was prepared by combining this cap with a film holder.
Each animal was anesthetized with xylazine hydrochloride and ketamine hydrochloride (Ketalar, Sankyo), and a dental film (Ultra Speed DF58, Kodak) was attached to the film holder on the fixing device to photograph X-ray by a dental X-ray photographing apparatus (Super Max 70, type HD-1, Morita Seisakusho).
That is, an X-ray film was measured under a stereoscopic microscope (objective×1, eyepiece×10), an OHP sheet was put on the X-ray film, and line a, line b and line c were marked on the OHP sheet using a ceramic knife, thereby obtaining respective two points b and b′ and c and c′ on line b and line c. Distances between the b-b′ and c-c′ were respectively defined as the distances from the reference points (b and c points) to the alveolar bone crest. The length of alveolar bone loss was expressed by averaging values obtained by subtracting the sum of b-b′ and c-c′ distances in each individual at the time of each week from the sum of b-b′ and c-c′ distances at the time of ligation.
Measurement of the depth of periodontal pockets was carried out by a four point measuring method in accordance with J. Clin. Periodontol., 4, 173-190 (1997)).
Regarding the length of gingival recession, the distance from the reference point on the tooth crown prepared at the time of ligation to the gingival margin was measured on two regions, the buccal and lingual side, of P4 at the time of each week in each individual, and expressed as the average value.
Attachment level is an index for measuring position of the bottom of gingival sulcus (pocket bottom), and was expressed as the distance from the pocket bottom to the reference point on the tooth crown. That is, a value of the depth of pocket plus the length of gingival recession was used as the attachment level.
Regions of inflammation and degree of the symptoms of gingiva were evaluated in accordance with J. Periodontol., 38, 602-610 (1967)).

[2] = Intra-alveolar bone and intra-rib drug concentration, canine periodontitis model (Example 1); conditions: for Intra-rib drug concentration: 13 weeks after final administration; for concentration at 13 weeks after final administration: female, beagle, dog, other: alveolar mucosa injection
Text: A total of 30 animals of female beagle dogs (1 to 2 years, body weight at the time of grouping 7.9 to 13.7 kg) were fed with a soft diet prepared by impregnating Gains Packen (AGF) with water from the previous day of ligation and used in this study. Under anesthesia with xylazine hydrochloride (Bayer) and pentobarbital, gingiva between second premolar (hereinafter, P2)/third premolar (hereinafter, P3), between P3/fourth premolar (hereinafter, P4) and between P4/first molar (hereinafter, M1) of right and left mandibles were incised with a surgical knife, and periodontal pockets were prepared around P3 and P4 using a periosteal elevator. An experimental periodontitis was induced by placing double-ligation of silk threads (surgical thread; Nescosuture (3-0), Morita) around the cervices of P3 and P4. In this case, reference points were prepared on the buccal side and lingual side of the crown of P4 at the height of gingival margin using dental drill. […] 1) Control group: physiological saline, 2) incadronate […] group, 3) incadronate 1.5 μg/site group, 4) incadronate 5.0 μg/site group and 5) incadronate 15 μg/site group.
The administration was started just after the surgical operation in each group. Incadronate (an injection, mfd. by Yamanouchi Pharmaceutical Co., Ltd.) was prepared and diluted with saline such that the administration liquid volume became 150 μl/site. The administration was carried out a total of three times, namely just after the ligation and 1 and 2 weeks after the ligation. The administration was carried out by the alveolar mucosa injection method using a 27 G injection needle attached to a glass micro-syringe. The injection needle was inserted horizontally to the alveolar mucosa close to the boundary between the alveolar mucosa and gingiva (muco-gingival junction) around the ligated tooth, and 150 μl of a drug solution was injected between periosteum of the alveolar bone and alveolar mucosa. The administration was carried out on both of the buccal and lingual side (a total of 4 sites per 1 mandible, 600 μl in total). Each animal was sacrificed by exsanguination 13 weeks after the final administration, and the mandibles including P3 and P4 of right and left side and the ribs were harvested and submitted to the intra-bone drug concentration measurement.
Root of the left fourth premolar was extracted using cutting pliers, the whole mandible containing jaw bone and alveolar bone was divided up and down into two, and the upper ½ was considered as the alveolar bone. […] Incadronate was extracted from these samples using a calcium precipitation method and its intra-bone drug concentration was measured by an HPLC method.

[3] = tested on: experimental periodontitis (canine periodontitis model); experiment: High dose topical administration study in canine periodontitis model (Comparative Example 1): alveolar bone loss and clinical scores; type: in vivo, beagle dog; conditions: 50 and 150 μg/site groups vs control, 3 topical injections
Description: (§1) Using 26 animals of beagle dog (3 to 6 years, body weight at the time of grouping 6.1 to 12.9 kg), topical administration study in a canine periodontitis model were carried out on a), control group: physiological saline, b) incadronate […] group and c) incadronate 150 μg/site group.

[4] = Intra-alveolar bone drug concentration, high dose topical study (Comparative Example 1); type: in vivo; conditions: beagle, dog, read-out: Intra-alveolar bone concentration of incadronate
Description: as §1

[5] = tested on: lamina propria mucosae of the administered sites; experiment: Local irritation to the lamina propria mucosae of the administered sites (Comparative Example 1); type: in vivo, beagle dog
Description: as §1

[6] = Alveolar bone drug concentration in rat tooth movement model; type: in vivo; conditions: 10 μg/50 μl/kg group
[7] = Alveolar bone drug concentration after oral administration in canine periodontitis model; type: in vivo; conditions: dog, oral 1.0 mg/kg, at completion of 26 weeks administration
Description: Thereafter, it was confirmed that the drug concentration in the alveolar bone is about 4 μg/g in that case.
Intra-alveolar bone concentration of incadronate was 5.67 and 4.28 μg/g bone. This was similar to the intra-alveolar bone drug concentration of about 4 μg/g at the time of the completion of 26 weeks oral administration of 1.0 mg/kg of incadronate (J. Periodont. Res., 33, 196-204 (1998)).

[8] = tested on: canine periodontitis model; conditions: oral administration; cited from earlier work
[9] = tested on: hamster periodontitis model; conditions: subcutaneous administration; cited from earlier work
[10] = tested on: tooth movement model (tooth relapse); experiment: Tooth movement model in rat, intra-gingival administration
[11] = tested on: rat molar experimental tooth movement models; conditions: cited from earlier work
[12] = tested on: monkey periodontitis model; conditions: oral administration; cited from earlier work
dog periodontitis model = conditions: oral administration; cited from earlier work

O.O=P([O-])([O-])C(NC1CCCCCC1)P(=O)(O)O.[Na+].[Na+] [incadronate, disodium cycloheptylaminomethylenediphosphonate monohydrate]
acceleration of pocket depth ([1]; 2 and 4 weeks after the ligation, dose of 1.5 μg/site or more): significantly inhibited
exacerbation of gingival index ([1]; after 2 weeks of the ligation, dose of 1.5 μg/site or more): significantly inhibited
reduction of attachment level ([1]; after 4 and 15 weeks of the ligation, dose of 1.5): significantly inhibited
dose at which alveolar bone loss inhibitory action was most potent ([1]; doses 0.5, 1.5, 5.0, 15 μg/site tested): 5 μg/site
reduction of attachment level ([1]; in and after 2 weeks of the ligation, dose of 5 or more): significantly inhibited
acceleration of gingival recession ([1]; in and after 4 weeks of the ligation, dose of 5 or more): significantly inhibited
aggravation of the clinical scores of periodontitis ([1]; incadronate-treated groups): inhibited
alveolar bone loss (standardized X-ray) ([1]; incadronate-treated groups 0.5-15 μg/site vs control, after ligation): inhibited
acceleration of gingival recession ([1]; only after 15 weeks of the ligation, dose of 1.5): significantly inhibited
intra-rib concentration as fraction of the intra-alveolar bone concentration ([2]; 5 to 15 μg/site-administered groups): 1/10
Intra-rib drug concentration ([2]; dose 0.5 μg/site): N.D. (N.D. indicates detection limit (0.025 μg/g) or less)
Intra-rib drug concentration ([2]; dose 1.5 μg/site): N.D. (N.D. indicates detection limit (0.025 μg/g) or less)
concentration at 13 weeks after final administration ([2]; alveolar bone, 0.5 μg/site): 58 ± 8 ng/g
concentration at 13 weeks after final administration ([2]; alveolar bone, 1.5 μg/site): 174 ± 11 ng/g
concentration at 13 weeks after final administration ([2]; alveolar bone, 5 μg/site): 356 ± 70 ng/g
concentration at 13 weeks after final administration ([2]; alveolar bone, 15 μg/site): 1040 ± 313 ng/g
concentration at 13 weeks after final administration ([2]; rib (epiphyseal region), 5 μg/site): 33 ± 3 ng/g
concentration at 13 weeks after final administration ([2]; rib (epiphyseal region), 15 μg/site): 91 ± 16 ng/g
clinical scores [3]: no significant difference
alveolar bone loss inhibitory action ([3]; monohydrate): unable to exert alveolar bone resorption inhibitory action; also recorded: no significant difference
concentration at 8 weeks after final administration ([4]; 50 μg/site group (first value)): 5670 ng/g
concentration at 8 weeks after final administration ([4]; 150 μg/site group): 4280 ng/g
local irritation to the lamina propria mucosae of the administered sites ([5]; 50 μg/site group): slight mononuclear cell infiltration was also observed partly
local irritation to the lamina propria mucosae of the administered sites ([5]; 150 μg/site group, one week after the final administration, monohydrate): considerable local irritation was observed; also recorded: bleeding, fibrin precipitation, inflammatory cell infiltration, salivary gland and muscular tissue damage were observed in all cases
average concentration in the alveolar bone [6]: 0.6 µg/g
concentration at 26 weeks [7]: ~4000 ng/g
alveolar bone loss and attachment level [8]: alveolar bone loss inhibitory and attachment level improving actions
alveolar bone resorption inhibitory action [8]: shows an alveolar bone resorption inhibitory action dose-dependently
suitable dose [8]: 1.0 mg/kg
alveolar bone loss [9]: alveolar bone loss inhibitory action
effect on tooth relapse ([10]; 10 μg/50 μl/kg intra-gingival (200 μg/ml)): no effect
effect on tooth relapse ([10]; 100 μg/50 μl/kg intra-gingival (2,000 μg/ml)): good tooth relapse inhibitory action
local irritation in gross observation ([10]; 10 or 100 μg/50 μl/kg intra-gingival): not observed

NCCC(O)(P(=O)(O)O)P(=O)(O)O [pamidronate]
effect on experimental tooth movement ([11]; topical administration to sub-mucasa on palate-side): effective

NCCCC(O)(P(=O)(O)O)P(=O)(O)O [alendronate]
alveolar bone destruction [12]: inhibited alveolar bone destruction
alveolar bone destruction (dog periodontitis model): inhibited alveolar bone destruction

O=P(O)(O)C(O)(Cc1cccnc1)P(=O)(O)O [risedronate]
effect on experimental tooth movement ([11]; topical administration to the sub-periosteum area adjacent to the first molar): effective
